*1 amine or outer side, *2 acyl side, *3 side chain or, on linkers, in order; H or OH if unused. Where a SMILES comes first, the peptide text is derived from it. Side-chain parts run from the residue outwards. [ ]: non-standard residue; d: D form. The star is where a group is joined. C18 diacid = O=C(O)CCCCCCCCCCCCCCCCC(=O)*; γGlu = O=C(O)[C@H](CCC(=O)[*:2])N[*:1]; Desaminohistidyl = O=C(CCc1c[nH]cn1)*; AEEA = NCCOCCOCC(=O)O; Aib = CC(C)(N)C(=O)O
Target: T1, human glucagon receptor (Homo sapiens, UniProt P47871)
T1 construct: expressed in transfected cells; host or cells: membranes of BHK cells, clone BHK hGCGR A3*25
Experiment: Assay (II)(b): glucagon receptor binding, [125I]-glucagon displacement, SPA on BHK membranes
Conditions: displacement of [125I]-glucagon, membranes with human glucagon receptor; read-out: IC50 GlucagonR
Method: Assay (II): GLP-1 and Glucagon Receptor Binding The purpose of this assay is to test the in vitro receptor binding activity of the GLP-1 derivatives of the invention. (b) Glucagon Receptor Binding The glucagon receptor (glucagonR) binding activity is a measure of affinity of a derivative for the human glucagon receptor. The glucagon receptor binding of each derivative were determined with competitive binding, displacing [^125I]-glucagon bound to glucagon receptors expressed in cell membranes associated with wheat germ agglutinin (WGA) scintillation proximity assay (SPA) beads. Each derivative was added in a series of concentrations to isolated membranes comprising the human glucagon receptor and displacement of the labelled ligand was monitored. The receptor binding was reported as the concentration at which half of the labelled ligand is displaced from the receptor, the IC^50 value. The following chemicals were used in the assay: DMEM w Glutamax (Gibco 61965-026), Pen/strep (Invitrogen 15140-122), G418 (Invitrogen 10131-027), Versene (Gibco 15040), 1 M Hepes (Gibco 15630), PBS (Invitrogen 14190-094), fetal calf serum (Invitrogen 16140-071), MgCl2 (Merck 1.05832.1000), EDTA (Invitrogen 15575-038), CaCl2 (Sigma, C5080), Tween 20 (Amresco 0850C335), ovalbumin (Sigma A5503), SPA particles (wheat germ agglutinin (WGA) SPA beads, Perkin Elmer RPNQ0001), [125I]-glucagon (produced in-house), OptiPlate™-96 (Packard 6005290). HME buffer consisted of 25 mM HEPES, 2 mM MgCl2 and 1 mM EDTA, and pH was adjusted to 7.4. Assay buffer consisted of 50 mM HEPES supplemented with 5 mM MgCl2, 1 mM CaCl2, 0.02% Tween 20 and 0.1% Ovalbumin, and pH was adjusted to 7.4. The cells used in this assay (clone BHK hGCGR A3*25) were BHK cells stable transfected with an expression plasmid comprising the cDNA encoding the human glucagon receptor. The cells were grown at 5% CO2 in DMEM, 10% fetal calf serum, 1% Pen/Strep (Penicillin/Streptomycin) and 1.0 mg/ml of the selection marker G418. To make a membrane preparation the cells were grown to approximately 80% confluence. The cells were washed twice in phosphate-buffered saline and harvested. The cells were pelleted using a brief centrifugation and the cell pellet was kept on ice. Lyse the cells by adding approx. 5 ml HME buffer, mix by pipetting and snap freeze in liquid nitrogen. Thaw quickly and add HME buffer to 10 ml. The cell pellet was homogenised with an ULTRA-THURRAX dispersing instrument for 20-30 seconds. The homogenate was centrifuged at 20.000×G, 4° C. for 10 minutes. The pellet was resuspended (homogenised) in 1-2 ml HME buffer. The protein concentration was determined. The membranes were aliquoted and snapfrozen in liquid nitrogen and stored at minus 80° C. • 1. For the receptor binding assay 50 μl of the assay buffer was added to each well of an assay plate. • 2. Test compounds were serially diluted to give the following concentrations: 8×10EE-7 M, 8×10EE-8 M, 8×10EE-9 M, 8×10EE-10 M, 8×10EE-11 M, 8×10EE-12 M and 8×10EE-13 M. Twenty-five μl were added to appropriate wells in the assay plate. • 3. Cell membrane aliquots were thawed and diluted to their working concentration. Fifty μl were added to each well in the assay plate. • 4. WGA SPA beads were suspended in assay buffer at 20 mg/ml. The suspension was diluted to 10 mg/ml in assay buffer just prior to addition to the assay plate. Fifty μl were added to each well in the assay plate. • 5. The incubation was started by adding 25 μl of 480 pM solution of [125I]-glucagon to each well of the assay plate. A 25 μl aliquot was reserved for measuring total counts/well. • 6. The assay plate was incubated for 2 h at 25° C. • 7. The assay plate was centrifuged for 10 min at 1500 rpm. • 8. The assay plate was read in a Perkin Elmer TopCount NXT instrument. Calculations The data from the TopCount instrument were transferred to GraphPad Prism software. The software averaged the values for the replicates and performed a non-linear regression. […]

T1 sequence (P47871 26-477): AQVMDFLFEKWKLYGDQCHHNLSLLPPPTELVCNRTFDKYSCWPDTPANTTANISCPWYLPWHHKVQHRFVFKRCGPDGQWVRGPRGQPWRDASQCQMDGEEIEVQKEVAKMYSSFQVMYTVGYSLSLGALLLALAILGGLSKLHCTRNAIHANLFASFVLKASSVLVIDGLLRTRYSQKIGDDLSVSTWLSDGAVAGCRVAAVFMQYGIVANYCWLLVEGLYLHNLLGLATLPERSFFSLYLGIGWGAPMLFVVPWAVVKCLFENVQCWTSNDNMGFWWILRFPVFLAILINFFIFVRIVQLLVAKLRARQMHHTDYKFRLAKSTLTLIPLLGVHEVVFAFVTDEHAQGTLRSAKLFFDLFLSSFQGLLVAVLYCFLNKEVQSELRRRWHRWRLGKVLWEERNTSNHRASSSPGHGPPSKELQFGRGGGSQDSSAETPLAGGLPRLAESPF

| SMILES | IC50 [nM] |
| --- | --- |
| CC[C@H](C)[C@H](NC(=O)[C@H](Cc1ccccc1)NC(=O)[C@H](CCC(=O)O)NC(=O)[C@H](CCCNC(=N)N)NC(=O)[C@H](C)NC(=O)[C@H](C)NC(=O)[C@H](CCCNC(=N)N)NC(=O)[C@H](C)NC(=O)[C@H](CCC(=O)O)NC(=O)[C@H](CC(C)C)NC(=O)[C@H](Cc1ccc(O)cc1)NC(=O)[C@H](CCCCN)NC(=O)[C@H](CO)NC(=O)[C@@H](NC(=O)[C@H](CC(=O)O)NC(=O)[C@H](CO)NC(=O)[C@@H](NC(=O)[C@H](Cc1ccccc1)NC(=O)[C@@H](NC(=O)CNC(=O)[C@H](Cc1c[nH]cn1)NC(=O)C(C)(C)NC(=O)CCc1c[nH]cn1)[C@@H](C)O)[C@@H](C)O)C(C)C)C(=O)N[C@@H](C)C(=O)N[C@@H](Cc1c[nH]c2ccccc12)C(=O)N[C@@H](CC(C)C)C(=O)N[C@@H](CC(C)C)C(=O)N[C@@H](CCCCNC(=O)CC[C@H](NC(=O)COCCOCCNC(=O)COCCOCCNC(=O)CC[C@H](NC(=O)CC[C@H](NC(=O)CCCCCCCCCCCCCCCCC(=O)O)C(=O)O)C(=O)O)C(=O)O)C(=O)NCC(=O)NCC(=O)NCC(=O)O [Example 31, N^ε34-[(4S)-4-carboxy-4-[[2-[2-[2-[[2-[2-[2-[[(4S)-4-carboxy-4-[[(4S)-4-carboxy-4-(17-carboxyheptadecanoylamino)butanoyl]amino]butanoyl]amino]ethoxy]ethoxy]acetyl]amino]ethoxy]ethoxy]acetyl]amino]butanoyl]-[Imp7,Aib8,His9,Lys18,Ala22,Arg23,Arg26,Leu33,Gly36]-GLP-1-(7-37)-peptide] (Desaminohistidyl-[Aib]HGTFTSDVSKYLEARAAREFIAWLLK([γGlu-AEEA-AEEA-γGlu-γGlu-C18 diacid])GGG-OH) | 3.7 |
| CC[C@H](C)[C@H](NC(=O)[C@H](Cc1ccccc1)NC(=O)[C@H](CCC(=O)O)NC(=O)[C@H](CCCNC(=N)N)NC(=O)[C@H](C)NC(=O)[C@H](C)NC(=O)[C@H](CCC(N)=O)NC(=O)[C@H](CCC(=O)O)NC(=O)[C@H](CCC(=O)O)NC(=O)[C@H](CC(C)C)NC(=O)[C@H](Cc1ccc(O)cc1)NC(=O)[C@H](CCCCN)NC(=O)[C@H](CO)NC(=O)[C@@H](NC(=O)[C@H](CC(=O)O)NC(=O)[C@H](CO)NC(=O)[C@@H](NC(=O)[C@H](Cc1ccccc1)NC(=O)[C@@H](NC(=O)CNC(=O)[C@H](Cc1c[nH]cn1)NC(=O)C(C)(C)NC(=O)CCc1c[nH]cn1)[C@@H](C)O)[C@@H](C)O)C(C)C)C(=O)N[C@@H](C)C(=O)N[C@@H](Cc1c[nH]c2ccccc12)C(=O)N[C@@H](CC(C)C)C(=O)N[C@@H](CC(C)C)C(=O)N[C@@H](CCCCNC(=O)COCCOCCNC(=O)COCCOCCNC(=O)CC[C@H](NC(=O)CC[C@H](NC(=O)CCCCCCCCCCCCCCCCC(=O)O)C(=O)O)C(=O)O)C(=O)N[C@H](C(N)=O)[C@@H](C)O [Example 5, N^ε34-[2-[2-[2-[[2-[2-[2-[[(4S)-4-carboxy-4-[[(4S)-4-carboxy-4-(17-carboxyheptadecanoylamino)butanoyl]amino]butanoyl]amino]ethoxy]ethoxy]acetyl]amino]ethoxy]ethoxy]acetyl]-[Imp7,Aib8,His9,Lys18,Glu22,Arg26,Leu33,Thr35]-GLP-1-(7-35)-peptide amide] (Desaminohistidyl-[Aib]HGTFTSDVSKYLEEQAAREFIAWLLK([AEEA-AEEA-γGlu-γGlu-C18 diacid])T-NH2) | 4.3 |
| CC[C@H](C)[C@H](NC(=O)[C@H](Cc1ccccc1)NC(=O)[C@H](CCC(=O)O)NC(=O)[C@H](CCCNC(=N)N)NC(=O)[C@H](C)NC(=O)[C@H](C)NC(=O)[C@H](CCC(N)=O)NC(=O)[C@H](CCC(=O)O)NC(=O)[C@H](CCC(=O)O)NC(=O)[C@H](CC(C)C)NC(=O)[C@H](Cc1ccc(O)cc1)NC(=O)[C@H](CCCCN)NC(=O)[C@H](CO)NC(=O)[C@@H](NC(=O)[C@H](CC(=O)O)NC(=O)[C@H](CO)NC(=O)[C@@H](NC(=O)[C@H](Cc1ccccc1)NC(=O)[C@@H](NC(=O)CNC(=O)[C@H](Cc1c[nH]cn1)NC(=O)C(C)(C)NC(=O)CCc1c[nH]cn1)[C@@H](C)O)[C@@H](C)O)C(C)C)C(=O)N[C@@H](C)C(=O)N[C@@H](Cc1c[nH]c2ccccc12)C(=O)N[C@@H](CC(C)C)C(=O)N[C@@H](CC(C)C)C(=O)N[C@@H](CCCCNC(=O)CNC(=O)[C@H](CO)NC(=O)CC[C@H](NC(=O)CC[C@H](NC(=O)CCCCCCCCCCCCCCCCC(=O)O)C(=O)O)C(=O)O)C(=O)N[C@H](C(N)=O)[C@@H](C)O [Example 4, N^ε34-[2-[[(2S)-2-[[(4S)-4-carboxy-4-[[(4S)-4-carboxy-4-(17-carboxyheptadecanoylamino)butanoyl]amino]butanoyl]amino]-3-hydroxypropanoyl]amino]acetyl]-[Imp7,Aib8,His9,Lys18,Glu22,Arg26,Leu33,Thr35]-GLP-1-(7-35)-peptide amide] (Desaminohistidyl-[Aib]HGTFTSDVSKYLEEQAAREFIAWLLK([Gly-Ser-γGlu-γGlu-C18 diacid])T-NH2) | 4.3 |
| CC[C@H](C)[C@H](NC(=O)[C@H](Cc1ccccc1)NC(=O)[C@H](CCC(=O)O)NC(=O)[C@H](CCCNC(=N)N)NC(=O)[C@H](C)NC(=O)[C@H](C)NC(=O)[C@H](CCCNC(=N)N)NC(=O)CNC(=O)[C@H](CCC(=O)O)NC(=O)[C@H](CC(C)C)NC(=O)[C@H](Cc1ccc(O)cc1)NC(=O)[C@H](CCCNC(=N)N)NC(=O)[C@H](CO)NC(=O)[C@@H](NC(=O)[C@H](CC(=O)O)NC(=O)[C@H](CO)NC(=O)[C@@H](NC(=O)[C@H](Cc1ccccc1)NC(=O)[C@@H](NC(=O)CNC(=O)[C@H](Cc1c[nH]cn1)NC(=O)C(C)(C)NC(=O)CCc1c[nH]cn1)[C@@H](C)O)[C@@H](C)O)C(C)C)C(=O)N[C@@H](C)C(=O)N[C@@H](Cc1c[nH]c2ccccc12)C(=O)N[C@@H](CC(C)C)C(=O)N[C@@H](CC(C)C)C(=O)N[C@@H](CCCCNC(=O)CC[C@H](NC(=O)CC[C@H](NC(=O)COCCOCCNC(=O)CC[C@H](NC(=O)CC[C@H](NC(=O)CCCCCCCCCCCCCCCCC(=O)O)C(=O)O)C(=O)O)C(=O)O)C(=O)O)C(=O)NCC(=O)N[C@@H](C)C(=O)NCC(=O)O [Example 35, N^ε34-[(4S)-4-carboxy-4-[[(4S)-4-carboxy-4-[[2-[2-[2-[[(4S)-4-carboxy-4-[[(4S)-4-carboxy-4-(17-carboxyheptadecanoylamino)butanoyl]amino]butanoyl]amino]ethoxy]ethoxy]acetyl]amino]butanoyl]amino]butanoyl]-[Imp7,Aib8,His9,Arg18,Arg23,Arg26,Leu33,Ala36]-GLP-1-(7-37)-peptide] (Desaminohistidyl-[Aib]HGTFTSDVSRYLEGRAAREFIAWLLK([γGlu-γGlu-AEEA-γGlu-γGlu-C18 diacid])GAG-OH) | 18.8 |

— patent US9988430B2, “Stable GLP-1 based GLP-1/glucagon receptor co-agonists” (Novo Nordisk A/S, priority 2014, dated 2018)
